Data taken from patent publication US11390646B2, “Structure-based peptide inhibitors of α-synuclein aggregation” (The Regents of the University of California, priority 2016, dated 2022).
Several values for one entry are separate records, joined by “and”; a condition that tells them apart may be missing. Identical values can stand only once. Entries after “also recorded” stand apart in the source; their conditions may differ. Ends that are not written are not given here.

Experiments:
[1] = test system: HEK293T cells expressing YFP-labeled WT α-syn; test: Cell culture seeding assay: recombinant α-syn fibrils co-transfected with inhibitors; format: cell-based, human; conditions: for seeding capacity of α-syn fibrils co-transfected with peptide (particles per well normalized to buffer): 125 nM recombinant α-syn fibrils; for concentrations at which seeding was reduced: 125 nM α-syn fibrils co-transfected
Experimental: (§1) We tested the efficacy of the inhibitors to prevent seeding in the cell culture model (FIG. 3A). We transfected the α-syn fibrils along with the different inhibitors. […] S62 was effective at concentrations of 12.5 μM and 6.25 μM in both cell lines (FIG. 3E). S71 was effective at low concentrations of 1.25 μM.
(§2) HEK293T cells that stably express YFP labeled WT α-syn and A53T α-syn were a generous gift from Dr. Marc Diamond. Cells were grown in Dulbecco's modified Eagle's medium (Gibco) supplemented with 10% fetal bovine serum (HyClone), 1% penicillin/streptomycin (Gibco), and 1% glutamax (Gibco) in a humidified incubator in 37° C., 5% CO2.
(§3) 10,000 cells in 90 μL media were plated in 96 well black wall plate (Cat #3660) and allowed to adhere overnight. α-syn was transfected at a final monomer concentration of 125 nM. Lipofectamine 2000 was diluted in OptiMEM media (2.5+17.5 μL) and incubated at room temperature for 5 mins. Protein aggregates were diluted in OptiMEM media (1:20) and sonicated in a water bath sonicator for 3 mins at low pulse. Diluted lipofectamine and protein samples were then mixed 1:1 and incubated at room temperature for 20 mins and thereafter 10 μL was added to each well. All samples are added in triplicates and experiments were repeated a minimum of two times. For co-transfection of α-syn fibrils with inhibitors, the fibrils and inhibitors were diluted in OptiMEM and incubated for 3 hours followed by sonication.
(§4) Puncta formation and cell growth was measured using Celigo Imaging Cell Cytometer allowing for unbiased measurement. Wells were imaged using fluorescent GFP channel and confluence was measured using Celigo analysis software. Images of entire well were taken and particles counted by ImageJ by particle analysis. Same settings were used to analyze wells of one plate at all days. Total particles counted in each well were normalized against the confluence and reported as particles per well.

[2] = test system: HEK293T cells expressing YFP-labeled A53T α-syn; test: as above; format: cell-based, human; conditions: for seeding capacity of α-syn fibrils co-transfected with peptide (particles per well normalized to buffer): 125 nM recombinant α-syn fibrils; for concentrations at which seeding was reduced: 125 nM α-syn fibrils co-transfected
Experimental: as §1, §2, §3, §4

[3] = test system: A53T α-syn expressing HEK cells; test: Seeding potency in cells of α-syn aggregates formed in the presence of PD seeds and inhibitors; format: cell-based, human; conditions: three different PD brain extracted seeds
Text: (§5) We tested the effect of the different inhibitors in preventing α-syn aggregation in the presence of PD extracted seeds. […] Next we tested the seeding potency of the α-syn aggregates formed in the presence of PD seeds and the different inhibitors (FIG. 6A).
(§6) Human frozen brain tissues were obtained from UCLA Brain Tumor Translational Resource (BTTR). Sarkosyl insoluble protein was extracted using previously described protocols. Briefly, frozen tissue was homogenized in ice cold PBS using a dounce homogenizer at 200 mg/mL. The homogenate was then diluted in buffer A (10 mM Tris 7.4, 800 mM NaCl, 1 mM EGTA, 10% Sucrose) to 50 mg/mL in total volume of 1 mL and centrifuged at 20,700 g for 20 min at 4° C. The supernatant was collected in an ultracentrifuge tube and pellet was resuspended in 0.5 mL buffer A followed by centrifugation at 20,700 g for 20 mins at 4° C. The supernatants pooled together. 150 μl 10% sarkosyl (w/v) in Millipore water was then added and incubated for 1 h at room temperature on flat rotating shaker at 700 rpm. The solution was then centrifuged at 100,000 g for 1 h at 4° C. using SW 55 Rotor (Beckman Coulter). The supernatanat was discarded and pellet was washed with 5 mL Buffer A and centrifuged at 100,000 g for 20 mins at 4° C. The pellet was resuspended in 100 μl 50 mM Tris Ph 7.4
as §3, §4

[4] = test system: WT α-syn expressing HEK cells; test: as above; format: cell-based, human; conditions: three different PD brain extracted seeds
Text: as §5, §6, §3, §4

[5] = molecular target: T1, α-syn seeded by PD tissue-extracted filaments (Homo sapiens, UniProt P37840); test: ThT assay of α-syn aggregation seeded by PD brain tissue-extracted filaments; format: biochemical; conditions: filaments from 4 different subjects (seeds A-D)
T1 construct: Full length α-syn was purified according to published protocols; made in house; host or cells: E. coli BL21 (DE3) gold
Text: We extracted insoluble protein aggregates from frozen autopsy PD brain tissues. We obtained tissues from 4 different subjects including the substantia nigra and frontal regions of one subject and temporal and frontal regions of other subjects. Using previously described protocols (Goedert et al. (1992) Neuron 8(1):159-168) that included precipitation with the ionic detergent sarkosyl, we extracted insoluble protein aggregates (FIG. 4A). All samples robustly seeded α-syn aggregation in vitro and in our cell culture model. In vitro addition of 2% seeds increased the ThT fluorescence 4 to 10 fold (FIG. 4B, 4C, 4D) along with a small decrease in the lag time. The seeded samples were then transfected in HEK cells. Consistent with the ThT assay, all seeded samples induced rapid puncta formation (FIG. 4E, 4F, 4G). Thus, fibrils extracted from PD brain tissues seeds recombinant protein, and the aggregates formed upon seeding induce rapid puncta formation in cell culture.
as §5
Fibril formation assays were performed with 50 μM protein concentration in conditions identical to those used for aggregating proteins for seeding assay, but with the addition of ThT. All assays were carried out in black Nunc 96-well optical bottom plates (Thermo Scientific). Plates were agitated at 600 rpm in 3-mm rotation diameter in a Varioskan microplate reader (Thermo) at 37° C. Fluorescence measurements were recorded every 30 mins using λex=444 nm, λcm=482 nm, with an integration time of 200 μs.
Human frozen brain tissues were obtained from UCLA Brain Tumor Translational Resource (BTTR). Sarkosyl insoluble protein was extracted using previously described protocols. Briefly, frozen tissue was homogenized in ice cold PBS using a dounce homogenizer at 200 mg/mL. […]

WT YFP-α-syn HEK cells = test: PD filament seeded α-syn fibrils transfected along with inhibitors; format: cell-based, human; conditions: two different PD filaments; for seeding by PD filament seeded α-syn fibrils (puncta formation): fluorescence measured up to 6 days
Experimental: We tested the efficacy of the inhibitors in preventing seeding by PD fibrils in cell culture. α-syn aggregates formed in the presence of PD fibrils were transfected in WT HEK cells along with the different inhibitors (FIG. 7A).
as §6
10,000 cells in 90 μL media were plated in 96 well black wall plate (Cat #3660) and allowed to adhere overnight. α-syn was transfected at a final monomer concentration of 125 nM. Lipofectamine 2000 was diluted in OptiMEM media (2.5+17.5 μL) and incubated at room temperature for 5 mins. […]
as §4, with “Same settings were used to analyze wells of one plate at all days.” left out

[6] = test system: HEK293T cells expressing YFP-labeled WT α-syn; test: Cell culture seeding assay: α-syn aggregated in the presence of inhibitors, mixture transfected, puncta counted; format: cell-based, human; conditions: for seeding competence of α-syn aggregated in presence of peptide (particles/puncta per well): 50 μM α-syn aggregated with 10, 5, 2, 1 fold excess (S71: equimolar and sub-stoichiometric), monitored up to 3 days
Text: (§7) We tested the efficacy of the inhibitors in preventing aggregation in a cell culture model. For these assays, we utilized two HEK293T cells that stably express YFP-labeled full-length WT α-syn and A53T α-syn (Sanders D W, et al. (2014) Neuron 82(6):1271-1288). In this model, lipofectamine-mediated transfection of recombinant fibrils leads to aggregation of the endogenous YFP-labeled protein that are seen as fluorescent puncta. Additionally, these puncta increase in size and number over time. This proliferation of aggregates over time is indicative of a ‘seeding’ phenomenon whereby a small amount of amyloid fibrils induces aggregation of the endogenous protein. First we tested the parent peptide segment, NACore to check its effect on seeding. α-syn was aggregated in the presence of molar excess of NACore (FIG. 2B). The mixture was transfected in cells and puncta formation was visualized and the number of puncta were counted as particles per well. […] Next we aggregated 50 μM α-syn in the presence of 500 μM, 250 μM, 100 μM and 50 μM inhibitor corresponding to 10, 5, 2 and 1 fold excess. The mixture was then transfected in cells and aggregation was monitored over time for up to 3 days by fluorescence imaging (FIG. 2A).
as §2, §3, §4

[7] = test system: HEK293T cells expressing YFP-labeled A53T α-syn; test: as above; format: cell-based, human; conditions: for seeding competence of α-syn aggregated in presence of peptide (particles/puncta per well): 50 μM α-syn aggregated with 10, 5, 2, 1 fold excess (S71: equimolar and sub-stoichiometric), monitored up to 3 days
Text: as §7, §2, §3, §4

PC12 cells = conditions: literature reference 20; cited from earlier work
[8] = α-syn aggregated in presence of inhibitor

For “YGRKKRRQRRRAVVT{N-me-Gly}VTAVAE [Inhibitor S71]”, the “seeding capacity of α-syn fibrils co-transfected with peptide (particles per well normalized to buffer)” value [1] was “reduce seeding capacity; also recorded: effective”, the “concentrations at which seeding was reduced” value [1] was 1.25 µM and the “seeding capacity of α-syn fibrils co-transfected with peptide (particles per well normalized to buffer)” value [2] was “reduce seeding capacity; also recorded: effective”. The “concentrations at which seeding was reduced” value [2] was 1.25 µM, the “seeding potency of α-syn aggregates formed in presence of PD seeds and inhibitor (puncta formation)” value [3] was “effective against all three seeds; also recorded: did not induce puncta formation” and the “seeding potency of α-syn aggregates formed in presence of PD seeds and inhibitor (puncta formation)” value [4] was “effective against all three seeds; also recorded: did not induce puncta formation”. For the same substance, the “inhibition of α-syn aggregation seeded by PD extracted seeds (ThT fluorescence)” value (from here on “inhibition of α-syn aggregation seeded”) [5] was “effective against seeds B and D; also recorded: efficacy against all seeds”, the “concentrations at which seeding by PD filament seeded fibrils was prevented/reduced” value (WT YFP-α-syn HEK cells) was 6.25 µM and the “seeding by PD filament seeded α-syn fibrils (puncta formation)” value (WT YFP-α-syn HEK cells) was “reduced seeding; also recorded: prevented seeding”. For the same substance, the “seeding competence of α-syn aggregated in presence of peptide (particles/puncta per well)” value (“seeding competence … (particles/puncta per well)” for short) [6] was “not seeding competent; also recorded: reduce the seeding potency of the aggregates” and the “seeding competence … (particles/puncta per well)” value [7] was “not seeding competent; also recorded: reduce the seeding potency of the aggregates”.

In the case of “GAVVWGVTAVKKGRKKRRQRRRPQ (TAT tag) [Inhibitor S62]”, the “seeding capacity of α-syn fibrils co-transfected with peptide (particles per well normalized to buffer)” value [1] is reported as “reduce seeding capacity; also recorded: effective”, the “concentrations at which seeding was reduced” value [1] is reported as 12.5 µM and 6.25 µM and the “seeding capacity of α-syn fibrils co-transfected with peptide (particles per well normalized to buffer)” value [2] is reported as “reduce seeding capacity; also recorded: effective”. For the same substance, the “concentrations at which seeding was reduced” value [2] was 12.5 µM and 6.25 µM, the “inhibition of α-syn aggregation seeded” value [5] was “effective against all seeds that were tested; also recorded: efficacy against all seeds” and the “seeding competence … (particles/puncta per well)” value [6] was “not seeding competent; also recorded: seeding incompetent”. For the same substance, the “seeding competence … (particles/puncta per well)” value [7] was “not seeding competent; also recorded: seeding incompetent”.

In the case of AVVTGVTAV [SubNACore, AVVTGVTAV], the “toxicity compared with NACore” value (PC12 cells) is given as “not as toxic”.

For “GAVVWGVTAVKKKKK (C-terminal poly-lysine tag) [Inhibitor S37, W mutation at Thr72 and poly-lysine tag at the C-terminus]”, the “seeding capacity of α-syn fibrils co-transfected with peptide (particles per well normalized to buffer)” value [1] was “reduce seeding capacity; also recorded: significant reduction in seeding”, the “concentrations at which seeding was reduced” value [1] was 12.5 µM and 6.25 µM and the “duration of reduction of seeding” value ([1]; single administration, co-transfection) was “up to 2 days”. The “seeding capacity of α-syn fibrils co-transfected with peptide (particles per well normalized to buffer)” value [2] was “reduce seeding capacity; also recorded: significant reduction in seeding”, the “concentrations at which seeding was reduced” value [2] was 12.5 µM and 6.25 µM and the “seeding potency of α-syn aggregates formed in presence of PD seeds and inhibitor (puncta formation)” value [3] was “not effective in reducing the seeding potency of aggregates”. The “seeding potency of α-syn aggregates formed in presence of PD seeds and inhibitor (puncta formation)” value [4] was “not effective in reducing the seeding potency of aggregates”, the “inhibition of α-syn aggregation seeded” value [5] was “marginal reduction in ThT fluorescence” and the “seeding by PD filament seeded α-syn fibrils (puncta formation)” value (WT YFP-α-syn HEK cells) was “prevented seeding; also recorded: prevented puncta formation”. For the same substance, the “seeding competence … (particles/puncta per well)” value [6] was “not seeding competent; also recorded: significant reduction in seeding”, the “duration of reduction in seeding” value [6, 8] was “up to 2 days” and the “seeding competence … (particles/puncta per well)” value [7] was “not seeding competent; also recorded: significant reduction in seeding”. For the same substance, the “duration of reduction in seeding” value [7, 8] was “up to 2 days”.
